≈ marks a conversion by molar mass, not a printed value. Entries after “also recorded” stand apart in the source; their conditions may differ. Read-outs that look alike come from different tables or passages of the source.
Experiments:
[1] = system: E. faecalis and E. faecium; assay: MIC and MBC against strains of E. faecalis and E. faecium; assay type: cell-based
[2] = system: human colorectal (HRT-18) cells; assay: MTS cytotoxicity assay; assay type: cell-based; conditions: for Non-toxic up to (concentration): tested 5-40 μg/mL
human FPPS (HsFPPS) = human FPPS (HsFPPS) (Homo sapiens, UniProt P14324); assay: HsFPPS inhibition assay; assay type: biochemical; conditions: data not shown
[3] = system: vancomycin-resistant S. aureus (VRSA); conditions: cited from earlier work
E. faecalis NR-31975 = assay: UDP-N-acetylmuramyl-pentapeptide accumulation; assay type: cell-based, Enterococcus faecalis; conditions: 10 × MIC, 30 minutes
[4] = polar aminoguanidine headgroup; source not stated; cited from earlier work
[5] = system: vancomycin-resistant Enterococcus faecium ATCC 700221; assay: Time-kill analysis; assay type: cell-based; conditions: 4 × MIC, 24 hour incubation, 37 °C
Gram-negative pathogens = assay: MIC against Gram-negative pathogens
[6] = system: vancomycin-resistant Enterococcus faecalis ATCC 51299; assay: Multi-step resistance selection; assay type: cell-based; conditions: one-fold increase = MIC x → 2x
[7] = system: vancomycin-resistant Enterococcus faecium HM-968; assay: Multi-step resistance selection; assay type: cell-based; conditions: one-fold increase = MIC x → 2x
C. elegans AU37 = assay type: in vivo, Caenorhabditis elegans; conditions: 20 μg/mL, 24 hours exposure
[8] = system: vancomycin-resistant Enterococcus faecalis HM-201; assay: Time-kill analysis; assay type: cell-based; conditions: 4 × MIC, 24 hour incubation, 37 °C
E. faecalis = assay: MIC against E. faecalis isolates; conditions: Enterococcus faecalis
E. coli ΔtolC = assay: Bacterial Cytological Profiling; assay type: cell-based, Escherichia coli; conditions: 5 × MIC (25 μg/mL), two hours
[9] = human liver microsomes; cited from earlier work
Caco-2 = conditions: polarized cell monolayer; ref not given; cited from earlier work
MRSA = conditions: topical; cited from earlier work
[10] = system: vancomycin-resistant Enterococcus faecalis HM-201; assay: C. elegans VRE infection model; assay type: in vivo, Caenorhabditis elegans; conditions: 20 μg/mL, treated for 18 hours, relative to untreated worms
E. faecalis HM-201 = assay: Re-sensitization of VRE to vancomycin; assay type: cell-based, Enterococcus faecalis; conditions: for MIC: Enterococcus faecalis; for Fold-improvement in MIC of vancomycin: with ½ × MIC Compound 1
E. faecium ATCC 700221 = assay: Re-sensitization of VRE to vancomycin; assay type: cell-based, Enterococcus faecium; conditions: for Fold-improvement in MIC of vancomycin: with ½ × MIC Compound 1
E. faecium HM-968 = assay: Re-sensitization of VRE to vancomycin; assay type: cell-based, Enterococcus faecium; conditions: for MIC: Enterococcus faecium; for Fold-improvement in MIC of vancomycin: with ½ × MIC Compound 1
E. faecalis HM-934 = assay: Re-sensitization of VRE to vancomycin; assay type: cell-based, Enterococcus faecalis; conditions: for MIC: Enterococcus faecalis; for Fold-improvement in MIC of vancomycin: with ½ × MIC Compound 1
E. faecalis ATCC 51299 = assay: Checkerboard assay; assay type: cell-based, Enterococcus faecalis; conditions: antibiotic in combination with compound 1
E. faecium (ATCC 700221) = assay: Re-sensitization of VRE to gentamicin; assay type: cell-based, Enterococcus faecium; conditions: sub-inhibitory concentration of 1; data not shown
E. faecalis (ATCC 51299) = assay: Re-sensitization of VRE to gentamicin; assay type: cell-based, Enterococcus faecalis; conditions: sub-inhibitory concentration of 1; data not shown
VRE = conditions: administered orally, phase II clinical trial; cited from earlier work
[11] = strains of E. faecalis and E. faecium
[12] = Gram-negative pathogens of Table 1, compound alone
[13] = K. pneumoniae, P. aeruginosa and E. coli, tested alone
[14] = K. pneumoniae, P. aeruginosa and E. coli, with sub-inhibitory colistin

human FPPS (HsFPPS), sequence (P14324 whole entry): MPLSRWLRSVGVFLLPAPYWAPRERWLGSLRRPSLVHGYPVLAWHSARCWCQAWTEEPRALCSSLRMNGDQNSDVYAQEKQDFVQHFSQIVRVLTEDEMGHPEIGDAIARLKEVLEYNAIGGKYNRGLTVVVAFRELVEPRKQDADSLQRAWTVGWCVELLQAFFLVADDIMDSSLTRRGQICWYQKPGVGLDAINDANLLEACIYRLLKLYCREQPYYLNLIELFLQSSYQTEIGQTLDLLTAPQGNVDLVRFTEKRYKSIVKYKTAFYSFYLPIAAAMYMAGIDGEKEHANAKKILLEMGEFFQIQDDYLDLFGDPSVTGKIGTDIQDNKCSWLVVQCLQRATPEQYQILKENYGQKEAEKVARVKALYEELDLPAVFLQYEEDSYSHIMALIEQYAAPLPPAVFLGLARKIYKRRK

CCCCc1ccc(-c2nc(C)c(/C(C)=N/NC(=N)N)s2)cc1 [Compound 1]
MBC relative to MIC [1, 11]: equal to or one-fold higher
Non-toxic up to (concentration) ([2]; 24 hours incubation): 20 µg/mL
Non-toxic up to (concentration) ([2]; two hours incubation): 20 µg/mL
Inhibition of FPPS (human FPPS (HsFPPS)): no inhibition
Resensitization of VRSA to vancomycin [3]: resensitizes; also recorded: capable of resensitizing
UDP-N-acetylmuramyl pentapeptide accumulation (E. faecalis NR-31975): large increases
pKa [4]: ~ 7
Time-kill result (complete eradication of bacteria) [5]: within two hours
MIC (Gram-negative pathogens; [12]): 8 to 64 µg/mL (≈ 24.3 to 194 µM)
Shift in MIC over 14 serial passages [6]: one-fold increase
Shift in MIC over 14 serial passages [7]: no shift in the MIC
Percent viable worms (C. elegans AU37): All worms survived
Time-kill result (complete eradication of bacteria) [8]: within two hours
MIC (E. faecalis): 1 to 8 µg/mL (≈ 3.04 to 24.3 µM)
Cytological effect (E. coli ΔtolC): cells lysed and formed spheroplasts
Affinity to hepatic microsomal enzymes [9]: high affinity to hepatic microsomal enzymes
Caco-2 permeability, apical to basolateral (Caco-2): limited ability to cross from the apical to basolateral surface

C/C(=N\NC(=N)N)c1sc(-c2ccc(-c3ccccc3)cc2)nc1C [Compound 2]
MBC relative to MIC ([1]; against E. faecium): more than four-fold higher
Toxic at (concentration) ([2]; 24 hours incubation): 40 µg/mL
Non-toxic up to (concentration) ([2]; 24 hours incubation): 20 µg/mL
Non-toxic up to (concentration) ([2]; two hours incubation): 40 µg/mL
Resensitization of VRSA to vancomycin [3]: capable of resensitizing
pKa [4]: ~ 7
Time-kill result (complete eradication of bacteria) [5]: not capable of completely eradicating the bacteria
MIC (Gram-negative pathogens; [12]): > 128 µg/mL
MIC (Gram-negative pathogens; [13]): > 128 µg/mL
MIC (Gram-negative pathogens; [14]): 1 to 4 µg/mL (≈ 2.86 to 11.4 µM)
Shift in MIC over 14 serial passages [6]: a one-fold increase in MIC was observed after the sixth passage and an additional two-fold increase was observed after the eleventh passage
Shift in MIC over 14 serial passages [7]: one-fold increase
Time-kill result (complete eradication of bacteria) [8]: within two hours
MIC (E. faecalis): 16 µg/mL (≈ 45.8 µM)

CCCCC#Cc1ccc(-c2nc(C)c(/C(C)=N/NC(=N)N)s2)cc1 [Compound 3]
MBC relative to MIC [1, 11]: equal to or one-fold higher
Toxic at (concentration) ([2]; 24 hours incubation): 40 µg/mL
Non-toxic up to (concentration) ([2]; 24 hours incubation): 20 µg/mL
Non-toxic up to (concentration) ([2]; two hours incubation): 40 µg/mL
pKa [4]: ~ 7
Time-kill result (complete eradication of bacteria) [5]: four hours
MIC (Gram-negative pathogens; [12]): > 128 µg/mL
MIC (Gram-negative pathogens; [13]): > 128 µg/mL
MIC (Gram-negative pathogens; [14]): 1 to 4 µg/mL (≈ 2.83 to 11.3 µM)
Shift in MIC over 14 serial passages [6]: one-fold increase
Shift in MIC over 14 serial passages [7]: no shift in the MIC
Time-kill result (complete eradication of bacteria) [8]: within two hours
Reduction of MRSA burden in infected skin wounds (MRSA): 96%
MIC (E. faecalis): 1 to 8 µg/mL (≈ 2.83 to 22.6 µM)
Caco-2 permeability, apical to basolateral (Caco-2): limited ability to cross from the apical to basolateral surface

CC[C@H]1OC(=O)[C@H](C)[C@@H](O[C@H]2C[C@@](C)(OC)[C@@H](O)[C@H](C)O2)[C@H](C)[C@@H](O[C@@H]2O[C@H](C)C[C@H](N(C)C)[C@H]2O)[C@](C)(O)C[C@@H](C)C(=O)[C@H](C)[C@@H](O)[C@]1(C)O [Erythromycin, reference compound]
MIC (Gram-negative pathogens): > 128 µg/mL
MIC (Gram-negative pathogens; [14]): 0.5 to 1 µg/mL (≈ 0.681 to 1.36 µM)

CC(=O)NC[C@H]1CN(c2ccc(N3CCOCC3)c(F)c2)C(=O)O1 [Linezolid, reference compound]
MBC relative to MIC [1, 11]: more than four-fold higher
Decrease in VRE burden in infected worms [10]: unable to reduce the burden of VRE
Time-kill result (complete eradication of bacteria) [5]: not able to generate a 10^3 × reduction in VRE CFU over 24 hours
Shift in MIC over 14 serial passages [6]: No increase in MIC
Shift in MIC over 14 serial passages [7]: one-fold increase
Time-kill result (complete eradication of bacteria) [8]: not able to generate a 10^3 × reduction in VRE CFU over 24 hours

CN[C@H](CC(C)C)C(=O)N[C@H]1C(=O)N[C@@H](CC(N)=O)C(=O)N[C@H]2C(=O)N[C@H]3C(=O)N[C@H](C(=O)N[C@H](C(=O)O)c4cc(O)cc(O)c4-c4cc3ccc4O)[C@H](O)c3ccc(c(Cl)c3)Oc3cc2cc(c3O[C@@H]2O[C@H](CO)[C@@H](O)[C@H](O)[C@H]2O[C@H]2C[C@](C)(N)[C@H](O)[C@H](C)O2)Oc2ccc(cc2Cl)[C@H]1O [Vancomycin]
MIC (E. faecalis HM-201; HM201, read-out: MIC of vancomycin, + ½ × MIC Compound 1): > 128 µg/mL
MIC (E. faecalis HM-201; HM201, read-out: MIC of vancomycin, vancomycin alone): 512 µg/mL
Fold-improvement in MIC of vancomycin (E. faecalis HM-201): No change
Fold-improvement in MIC of vancomycin (E. faecalis HM-201; listed as vancomycin): no resensitization
UDP-N-acetylmuramyl pentapeptide accumulation (E. faecalis NR-31975): large increases
MIC (E. faecium ATCC 700221; Enterococcus faecium, ATCC700221, read-out: MIC of vancomycin, vancomycin alone): 256 µg/mL
Fold-improvement in MIC of vancomycin (E. faecium ATCC 700221): 256-fold
Fold-improvement in MIC of vancomycin (E. faecium ATCC 700221; listed as vancomycin): 256 fold
MIC (E. faecium HM-968; HM968, read-out: MIC of vancomycin, + ½ × MIC Compound 1): > 128 µg/mL
MIC (E. faecium HM-968; HM968, read-out: MIC of vancomycin, vancomycin alone): 1020 µg/mL
Fold-improvement in MIC of vancomycin (E. faecium HM-968): No change
Fold-improvement in MIC of vancomycin (E. faecium HM-968; listed as vancomycin): no resensitization
MIC (E. faecalis HM-934; HM934, read-out: MIC of vancomycin, + ½ × MIC Compound 1): > 128 µg/mL
MIC (E. faecalis HM-934; HM934, read-out: MIC of vancomycin, vancomycin alone): > 512 µg/mL
Fold-improvement in MIC of vancomycin (E. faecalis HM-934): No change
Fold-improvement in MIC of vancomycin (E. faecalis HM-934; listed as vancomycin): no resensitization

CC1(C)S[C@@H]2[C@H](NC(=O)[C@H](N)c3ccccc3)C(=O)N2[C@H]1C(=O)O [ampicillin]
FIC index (E. faecalis ATCC 51299): 3.00

O=C(O)c1cn(C2CC2)c2cc(N3CCNCC3)c(F)cc2c1=O [ciprofloxacin]
FIC index (E. faecalis ATCC 51299): 0.50

C[C@H]1c2cccc(O)c2C(=O)C2=C(O)[C@]3(O)C(=O)C(C(N)=O)=C(O)[C@@H](N(C)C)[C@@H]3[C@@H](O)[C@@H]21 [doxycycline]
FIC index (E. faecalis ATCC 51299): 2.00

CNC(C)C1CCC(N)C(OC2C(N)CC(N)C(OC3OCC(C)(O)C(NC)C3O)C2O)O1 (stereo not shown) [gentamicin]
Resensitization to gentamicin (E. faecium (ATCC 700221)): unable to resensitize
Resensitization to gentamicin (E. faecalis (ATCC 51299)): unable to resensitize

Ramoplanin
Patients with suppressed gastrointestinal colonization of VRE (VRE): up to 90%
